Measurements as given in article PMC5847526, “Inhibition of neuronal FLT3 receptor tyrosine kinase alleviates peripheral neuropathic pain in mice” (Nature Communications, 2018).

Assays:
[1] = biological target: Interleukin-1 receptor-associated kinase 4 (IRAK4) (Homo sapiens, UniProt Q9NWZ3); experiment: kinase selectivity panel, inhibition of staurosporine binding at a single concentration ([…])
Abl kinase = biological target: T1, Abl kinase (Homo sapiens, UniProt P00519); experiment: biochemical; design: ExpresS Diversity kinase profile (Eurofins Cerep P10), per cent inhibition; details: read-out: Inhibition of reference binding (Table 4)
T1 construct: gene ABL1

CDK2 = CDK2 (Homo sapiens, UniProt P24941); experiment: biochemical; design: ExpresS Diversity kinase profile (Eurofins Cerep P10), per cent inhibition; details: read-out: Inhibition of reference binding (Table 4)
CHK1 = biological target: T2, CHK1 (Homo sapiens, UniProt O14757); experiment: biochemical; design: ExpresS Diversity kinase profile (Eurofins Cerep P10), per cent inhibition; details: read-out: Inhibition of reference binding (Table 4)
T2 construct: gene CHEK1

CHK2 = biological target: T3, CHK2 (Homo sapiens, UniProt O96017); experiment: biochemical; design: ExpresS Diversity kinase profile (Eurofins Cerep P10), per cent inhibition; details: read-out: Inhibition of reference binding (Table 4)
T3 construct: gene CHEK2

EphA3 kinase = EphA3 kinase (Homo sapiens, UniProt P29320); experiment: biochemical; design: ExpresS Diversity kinase profile (Eurofins Cerep P10), per cent inhibition; details: read-out: Inhibition of reference binding (Table 4)
Fms/CSFR kinase = biological target: T4, Fms/CSFR kinase (Homo sapiens, UniProt P07333); experiment: biochemical; design: ExpresS Diversity kinase profile (Eurofins Cerep P10), per cent inhibition; details: read-out: Inhibition of reference binding (Table 4)
T4 construct: gene CSF1R

GSK3β = biological target: T5, GSK3β (Homo sapiens, UniProt P49841); experiment: biochemical; design: ExpresS Diversity kinase profile (Eurofins Cerep P10), per cent inhibition; details: read-out: Inhibition of reference binding (Table 4)
T5 construct: gene GSK3B

JAK3 = JAK3 (Homo sapiens, UniProt P52333); experiment: biochemical; design: ExpresS Diversity kinase profile (Eurofins Cerep P10), per cent inhibition; details: read-out: Inhibition of reference binding (Table 4)
JNK1 = biological target: T6, JNK1 (Homo sapiens, UniProt P45983); experiment: biochemical; design: ExpresS Diversity kinase profile (Eurofins Cerep P10), per cent inhibition; details: read-out: Inhibition of reference binding (Table 4)
T6 construct: gene MAPK8

KDR = KDR (Homo sapiens, UniProt P35968); experiment: biochemical; design: ExpresS Diversity kinase profile (Eurofins Cerep P10), per cent inhibition; details: read-out: Inhibition of reference binding (Table 4)
Lck kinase = Lck kinase (Homo sapiens, UniProt P06239); experiment: biochemical; design: ExpresS Diversity kinase profile (Eurofins Cerep P10), per cent inhibition; details: read-out: Inhibition of reference binding (Table 4)
MNK2 = biological target: T7, MNK2 (Homo sapiens, UniProt Q9HBH9); experiment: biochemical; design: ExpresS Diversity kinase profile (Eurofins Cerep P10), per cent inhibition; details: read-out: Inhibition of reference binding (Table 4)
T7 construct: gene MKNK2

PAK4 = PAK4 (Homo sapiens, UniProt O96013); experiment: biochemical; design: ExpresS Diversity kinase profile (Eurofins Cerep P10), per cent inhibition; details: read-out: Inhibition of reference binding (Table 4)
PKCbeta 2 = biological target: T8, PKCbeta 2 (Homo sapiens, UniProt P05771); experiment: biochemical; design: ExpresS Diversity kinase profile (Eurofins Cerep P10), per cent inhibition; details: read-out: Inhibition of reference binding (Table 4)
T8 construct: gene PRKCB; isoform beta 2

PLK1 = PLK1 (Homo sapiens, UniProt P53350); experiment: biochemical; design: ExpresS Diversity kinase profile (Eurofins Cerep P10), per cent inhibition; details: read-out: Inhibition of reference binding (Table 4)
Pim2 kinase = Pim2 kinase (Homo sapiens, UniProt Q9P1W9); experiment: biochemical; design: ExpresS Diversity kinase profile (Eurofins Cerep P10), per cent inhibition; details: read-out: Inhibition of reference binding (Table 4)
RAF-1 kinase = biological target: T9, RAF-1 kinase (Homo sapiens, UniProt P04049); experiment: biochemical; design: ExpresS Diversity kinase profile (Eurofins Cerep P10), per cent inhibition; details: read-out: Inhibition of reference binding (Table 4)
T9 construct: gene RAF1

ROCK1 = ROCK1 (Homo sapiens, UniProt Q13464); experiment: biochemical; design: ExpresS Diversity kinase profile (Eurofins Cerep P10), per cent inhibition; details: read-out: Inhibition of reference binding (Table 4)
SGK1 = SGK1 (Homo sapiens, UniProt O00141); experiment: biochemical; design: ExpresS Diversity kinase profile (Eurofins Cerep P10), per cent inhibition; details: read-out: Inhibition of reference binding (Table 4)
c-KIT = c-KIT (Homo sapiens, UniProt P10721); experiment: biochemical; design: ExpresS Diversity kinase profile (Eurofins Cerep P10), per cent inhibition; details: read-out: Inhibition of reference binding (Table 4)
c-Met kinase = c-Met kinase (Homo sapiens, UniProt P08581); experiment: biochemical; design: ExpresS Diversity kinase profile (Eurofins Cerep P10), per cent inhibition; details: read-out: Inhibition of reference binding (Table 4)
p38α kinase = biological target: T10, p38α kinase (Homo sapiens, UniProt Q16539); experiment: biochemical; design: ExpresS Diversity kinase profile (Eurofins Cerep P10), per cent inhibition; details: read-out: Inhibition of reference binding (Table 4)
T10 construct: gene MAPK14

PRLR-JAK1 = PRLR-JAK1 (Homo sapiens, UniProt P16471); experiment: cell-based; design: PathHunter eXpress functional assay (DiscoverX tkMAX), inhibition of reference ligand response; details: read-out: % Inhibition of reference binding (Table 3)
TrkC-P75 = biological target: T11, TrkC-P75 (Homo sapiens, UniProt Q16288); experiment: cell-based; design: PathHunter eXpress functional assay (DiscoverX tkMAX), inhibition of reference ligand response; details: read-out: % Inhibition of reference binding (Table 3)
T11 construct: gene NTRK3

c-Ret-GFRα2 = c-Ret-GFRα2 (Homo sapiens, UniProt P07949); experiment: cell-based; design: PathHunter eXpress functional assay (DiscoverX tkMAX), inhibition of reference ligand response; details: read-out: % Inhibition of reference binding (Table 3)
PRLR-JAK2 = PRLR-JAK2 (Homo sapiens, UniProt P16471); experiment: cell-based; design: PathHunter eXpress functional assay (DiscoverX tkMAX), inhibition of reference ligand response; details: read-out: % Inhibition of reference binding (Table 3)

T10 sequence (Q16539 whole entry): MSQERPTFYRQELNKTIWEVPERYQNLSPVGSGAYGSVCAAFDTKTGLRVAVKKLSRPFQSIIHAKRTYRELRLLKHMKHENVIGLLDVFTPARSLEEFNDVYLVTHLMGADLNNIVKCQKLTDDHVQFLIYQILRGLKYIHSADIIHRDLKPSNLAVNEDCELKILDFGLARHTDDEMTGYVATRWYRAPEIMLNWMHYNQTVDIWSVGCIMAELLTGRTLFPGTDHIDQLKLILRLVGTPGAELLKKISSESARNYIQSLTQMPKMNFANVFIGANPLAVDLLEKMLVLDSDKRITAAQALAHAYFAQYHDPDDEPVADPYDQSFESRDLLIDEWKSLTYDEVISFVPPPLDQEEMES
T6 sequence (P45983 whole entry): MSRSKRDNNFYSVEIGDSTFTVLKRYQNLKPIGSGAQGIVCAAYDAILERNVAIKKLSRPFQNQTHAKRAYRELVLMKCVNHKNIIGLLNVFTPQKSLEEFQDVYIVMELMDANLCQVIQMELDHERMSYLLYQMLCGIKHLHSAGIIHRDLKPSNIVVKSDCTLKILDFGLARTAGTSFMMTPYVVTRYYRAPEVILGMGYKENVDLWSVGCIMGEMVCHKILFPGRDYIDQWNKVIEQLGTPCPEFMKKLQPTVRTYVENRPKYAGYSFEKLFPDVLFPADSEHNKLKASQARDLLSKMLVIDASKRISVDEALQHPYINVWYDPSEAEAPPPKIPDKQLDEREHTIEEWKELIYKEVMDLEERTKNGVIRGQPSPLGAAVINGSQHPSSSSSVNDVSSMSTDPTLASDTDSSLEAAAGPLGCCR
T9 sequence (P04049 whole entry): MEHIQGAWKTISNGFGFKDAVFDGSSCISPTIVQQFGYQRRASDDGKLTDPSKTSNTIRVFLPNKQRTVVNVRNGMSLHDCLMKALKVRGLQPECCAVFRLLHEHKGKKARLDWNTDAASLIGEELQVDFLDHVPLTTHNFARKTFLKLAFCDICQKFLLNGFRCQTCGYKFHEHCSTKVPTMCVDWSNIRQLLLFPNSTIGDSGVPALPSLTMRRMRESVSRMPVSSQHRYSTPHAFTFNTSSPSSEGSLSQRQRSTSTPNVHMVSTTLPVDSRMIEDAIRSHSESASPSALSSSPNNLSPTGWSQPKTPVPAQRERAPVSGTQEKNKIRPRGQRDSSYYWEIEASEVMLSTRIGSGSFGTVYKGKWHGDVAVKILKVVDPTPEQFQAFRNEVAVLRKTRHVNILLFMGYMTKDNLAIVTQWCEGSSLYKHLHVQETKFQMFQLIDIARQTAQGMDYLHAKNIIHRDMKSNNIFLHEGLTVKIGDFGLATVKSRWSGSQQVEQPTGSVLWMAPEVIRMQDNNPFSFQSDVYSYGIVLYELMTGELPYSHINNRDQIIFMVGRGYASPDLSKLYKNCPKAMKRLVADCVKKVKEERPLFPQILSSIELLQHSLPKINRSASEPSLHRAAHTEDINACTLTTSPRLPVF
Chain of SGK1 (O00141 whole entry): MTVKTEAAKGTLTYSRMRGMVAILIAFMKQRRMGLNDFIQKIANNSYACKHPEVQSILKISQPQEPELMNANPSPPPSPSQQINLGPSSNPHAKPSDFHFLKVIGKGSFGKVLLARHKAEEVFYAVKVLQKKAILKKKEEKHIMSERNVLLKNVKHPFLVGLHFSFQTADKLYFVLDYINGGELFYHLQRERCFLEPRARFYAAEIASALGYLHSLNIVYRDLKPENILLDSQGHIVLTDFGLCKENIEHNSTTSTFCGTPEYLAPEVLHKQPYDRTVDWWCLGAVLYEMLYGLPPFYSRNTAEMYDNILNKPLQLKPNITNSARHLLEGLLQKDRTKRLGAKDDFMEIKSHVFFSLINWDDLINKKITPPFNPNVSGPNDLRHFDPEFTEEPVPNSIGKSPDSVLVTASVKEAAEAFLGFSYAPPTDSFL
T7 sequence (Q9HBH9 whole entry): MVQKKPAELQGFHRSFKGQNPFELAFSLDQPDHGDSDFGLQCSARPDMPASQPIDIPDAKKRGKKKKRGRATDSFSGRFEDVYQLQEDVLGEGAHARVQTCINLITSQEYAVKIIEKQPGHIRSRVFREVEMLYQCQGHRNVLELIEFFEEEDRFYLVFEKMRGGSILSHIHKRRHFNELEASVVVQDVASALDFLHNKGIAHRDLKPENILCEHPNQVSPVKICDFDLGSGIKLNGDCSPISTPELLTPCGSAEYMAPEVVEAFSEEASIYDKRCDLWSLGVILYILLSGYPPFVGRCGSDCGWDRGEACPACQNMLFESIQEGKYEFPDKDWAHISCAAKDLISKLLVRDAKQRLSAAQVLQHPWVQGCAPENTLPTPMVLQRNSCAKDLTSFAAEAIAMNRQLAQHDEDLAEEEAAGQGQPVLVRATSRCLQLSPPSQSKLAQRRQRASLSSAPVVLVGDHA
T2 sequence (O14757 whole entry): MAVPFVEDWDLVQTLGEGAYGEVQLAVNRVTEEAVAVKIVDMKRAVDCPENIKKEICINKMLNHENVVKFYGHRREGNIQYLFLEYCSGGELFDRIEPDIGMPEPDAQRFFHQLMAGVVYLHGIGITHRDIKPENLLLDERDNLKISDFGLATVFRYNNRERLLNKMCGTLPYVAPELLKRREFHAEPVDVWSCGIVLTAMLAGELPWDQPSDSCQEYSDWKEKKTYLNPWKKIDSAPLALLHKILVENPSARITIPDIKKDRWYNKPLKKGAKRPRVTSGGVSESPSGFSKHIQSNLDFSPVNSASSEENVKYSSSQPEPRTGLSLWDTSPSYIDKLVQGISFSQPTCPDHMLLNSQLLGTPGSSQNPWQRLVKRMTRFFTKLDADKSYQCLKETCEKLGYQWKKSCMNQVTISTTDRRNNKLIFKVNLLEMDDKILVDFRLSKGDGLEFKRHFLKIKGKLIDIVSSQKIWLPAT
Chain of c-KIT (P10721 whole entry): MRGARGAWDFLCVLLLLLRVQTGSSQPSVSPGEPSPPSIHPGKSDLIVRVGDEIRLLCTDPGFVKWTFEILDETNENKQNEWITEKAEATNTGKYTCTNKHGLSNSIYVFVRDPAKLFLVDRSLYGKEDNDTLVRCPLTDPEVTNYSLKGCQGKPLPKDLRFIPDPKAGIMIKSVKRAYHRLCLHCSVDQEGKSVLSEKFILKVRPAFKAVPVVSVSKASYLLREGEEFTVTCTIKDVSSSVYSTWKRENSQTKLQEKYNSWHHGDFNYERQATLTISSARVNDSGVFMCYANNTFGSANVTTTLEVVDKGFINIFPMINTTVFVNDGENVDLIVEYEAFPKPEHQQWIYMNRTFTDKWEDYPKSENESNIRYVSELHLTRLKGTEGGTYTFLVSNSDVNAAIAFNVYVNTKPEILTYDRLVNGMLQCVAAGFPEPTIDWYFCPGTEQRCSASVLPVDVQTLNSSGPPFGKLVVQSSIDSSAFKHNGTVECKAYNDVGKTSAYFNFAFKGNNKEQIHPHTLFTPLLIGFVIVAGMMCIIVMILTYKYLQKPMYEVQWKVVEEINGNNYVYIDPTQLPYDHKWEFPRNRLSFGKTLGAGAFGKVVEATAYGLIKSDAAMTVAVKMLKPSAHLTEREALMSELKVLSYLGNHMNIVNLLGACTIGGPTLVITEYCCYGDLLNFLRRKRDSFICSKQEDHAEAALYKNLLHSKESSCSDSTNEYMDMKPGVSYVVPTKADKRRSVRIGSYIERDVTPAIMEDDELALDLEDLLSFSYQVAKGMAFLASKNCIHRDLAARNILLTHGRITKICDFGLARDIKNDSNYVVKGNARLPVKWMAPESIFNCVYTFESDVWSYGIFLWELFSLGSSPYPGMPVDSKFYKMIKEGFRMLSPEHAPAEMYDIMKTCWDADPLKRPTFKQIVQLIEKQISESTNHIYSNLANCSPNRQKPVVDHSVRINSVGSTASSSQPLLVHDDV
T1 sequence (P00519 whole entry): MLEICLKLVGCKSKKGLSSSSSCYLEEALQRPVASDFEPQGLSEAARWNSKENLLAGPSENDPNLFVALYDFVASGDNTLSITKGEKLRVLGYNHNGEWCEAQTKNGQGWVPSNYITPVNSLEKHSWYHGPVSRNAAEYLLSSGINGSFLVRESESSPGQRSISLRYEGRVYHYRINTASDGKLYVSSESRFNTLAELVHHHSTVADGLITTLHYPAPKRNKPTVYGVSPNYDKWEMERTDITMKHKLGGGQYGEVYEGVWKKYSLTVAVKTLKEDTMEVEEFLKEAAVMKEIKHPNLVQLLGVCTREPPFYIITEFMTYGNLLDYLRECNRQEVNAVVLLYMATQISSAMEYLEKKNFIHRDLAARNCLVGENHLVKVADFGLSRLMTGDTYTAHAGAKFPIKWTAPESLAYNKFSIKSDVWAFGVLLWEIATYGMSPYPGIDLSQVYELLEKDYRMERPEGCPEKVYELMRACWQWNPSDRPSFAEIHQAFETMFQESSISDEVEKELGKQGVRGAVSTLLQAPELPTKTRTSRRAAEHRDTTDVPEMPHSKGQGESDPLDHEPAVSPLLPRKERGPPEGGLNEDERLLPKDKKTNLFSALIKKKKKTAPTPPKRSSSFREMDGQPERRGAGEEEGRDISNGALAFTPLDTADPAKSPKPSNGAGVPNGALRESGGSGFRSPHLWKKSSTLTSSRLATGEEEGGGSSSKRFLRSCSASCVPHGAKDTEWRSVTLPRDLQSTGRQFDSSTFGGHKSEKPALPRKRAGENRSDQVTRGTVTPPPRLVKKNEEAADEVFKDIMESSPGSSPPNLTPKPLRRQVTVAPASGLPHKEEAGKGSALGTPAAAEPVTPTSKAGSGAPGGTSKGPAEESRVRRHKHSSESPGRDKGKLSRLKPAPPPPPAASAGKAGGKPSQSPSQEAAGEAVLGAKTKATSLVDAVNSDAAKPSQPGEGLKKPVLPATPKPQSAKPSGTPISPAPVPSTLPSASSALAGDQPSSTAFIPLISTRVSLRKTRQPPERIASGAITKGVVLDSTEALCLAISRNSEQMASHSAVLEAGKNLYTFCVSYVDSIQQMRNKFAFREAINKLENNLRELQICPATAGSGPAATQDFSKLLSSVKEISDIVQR

O=C(Nc1cc(Cl)ccc1O)c1cccc(S(=O)(=O)N2CCCCC2)c1 [compound 66, BDT001]
inhibition at 10 µM [1]: 64%
inhibition at 10 µM (Abl kinase): 16%
inhibition at 10 µM (CDK2): 33%
inhibition at 10 µM (CHK1): -10%
inhibition at 10 µM (CHK2): 6%
inhibition at 10 µM (EphA3 kinase): 0%
inhibition at 10 µM (Fms/CSFR kinase): 1%
inhibition at 10 µM (GSK3β): 0%
inhibition at 10 µM (JAK3): -3%
inhibition at 10 µM (JNK1): 32%
inhibition at 10 µM (KDR): -6%
inhibition at 10 µM (Lck kinase): -14%
inhibition at 10 µM (MNK2): -7%
inhibition at 10 µM (PAK4): 6%
inhibition at 10 µM (PKCbeta 2): 1%
inhibition at 10 µM (PLK1): -5%
inhibition at 10 µM (Pim2 kinase): 19%
inhibition at 10 µM (RAF-1 kinase): 11%
inhibition at 10 µM (ROCK1): 2%
inhibition at 10 µM (SGK1): 16%
inhibition at 10 µM (c-KIT): -1%
inhibition at 10 µM (c-Met kinase): 0%
inhibition at 10 µM (p38α kinase): 23%
inhibition at 10 µM (PRLR-JAK1): 6.1%
inhibition at 10 µM (TrkC-P75): 0.6%
inhibition at 10 µM (c-Ret-GFRα2): -4.1%
inhibition at 10 µM (PRLR-JAK2): 1.9%
